Laboratory results from US12044651B2, “Sensor device and methods” (SCENTIAN BIO LIMITED, priority 2016, dated 2024).

How the values were obtained:
[1] = molecular target: T1, OR35a (Drosophila melanogaster, UniProt Q9V3Q2); test: CNT-FET sensor covalently functionalized with Or35a nanodiscs (Example 3); format: binding
T1 sequence (Q9V3Q2 1-409): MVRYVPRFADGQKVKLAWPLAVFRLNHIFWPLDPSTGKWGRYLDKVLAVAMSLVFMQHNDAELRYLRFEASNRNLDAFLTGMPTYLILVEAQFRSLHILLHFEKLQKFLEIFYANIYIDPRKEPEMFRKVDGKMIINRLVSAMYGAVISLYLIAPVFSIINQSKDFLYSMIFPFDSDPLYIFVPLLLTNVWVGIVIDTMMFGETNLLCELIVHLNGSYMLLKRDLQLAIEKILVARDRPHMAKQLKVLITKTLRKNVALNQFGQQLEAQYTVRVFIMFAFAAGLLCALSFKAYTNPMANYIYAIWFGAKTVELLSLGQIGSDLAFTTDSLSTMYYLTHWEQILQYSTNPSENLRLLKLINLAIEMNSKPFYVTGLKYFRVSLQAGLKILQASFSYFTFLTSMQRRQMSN
Protocol: (§1) The dispersion was sonicated until a clear solution was obtained. The temperature was kept at 25° C. throughout the sonication process. The thiolpyridine solution was prepared by dissolving 10 mg of 2-Mercaptopyridine (99%, Sigma Aldrich) in 1 ml of methanol. The solution was spun coated on a polydimethylsiloxane (PDMS) surface at 2000 rpm for one minute. Before the spin coating process, the PDMS surface was cleaned by a 50 W Oxygen plasma for 1 minute to improve the wettability. The cleaned substrates were placed upside down on the PDMS surface for three minutes and washed in ethanol to remove the excess thiolpyridine molecules. Then the substrates were transferred into the CNT suspension and immersed into the suspension for 10 minutes. The samples were removed from the suspension and dipped into Ethanol for another 10 minutes to remove the thiolpyridine molecules in the SWNT network. The alignment markers were deposited by defining the markers by photolithography and thermal evaporation of 5 nm Chromium and 50 nm of Gold. The metal Lift off was done by acetone immersion for 15 minutes followed by an Isopropyl alcohol (IPA) wash and N2 blow dry. The result is a uniform thin film CNT network covering the entire substrate surface. The purification procedure is a variation on the one detailed in […] et al. 2013^14. […] Purity was assessed on Coomassie stained SDS-PAGE gels and Western blotting. […]

[2] = molecular target: T2, Or22a (Drosophila melanogaster, UniProt P81909); test: CNT-FET sensor covalently functionalized with Or22a nanodiscs (Example 3); format: binding
T2 sequence (P81909 1-397): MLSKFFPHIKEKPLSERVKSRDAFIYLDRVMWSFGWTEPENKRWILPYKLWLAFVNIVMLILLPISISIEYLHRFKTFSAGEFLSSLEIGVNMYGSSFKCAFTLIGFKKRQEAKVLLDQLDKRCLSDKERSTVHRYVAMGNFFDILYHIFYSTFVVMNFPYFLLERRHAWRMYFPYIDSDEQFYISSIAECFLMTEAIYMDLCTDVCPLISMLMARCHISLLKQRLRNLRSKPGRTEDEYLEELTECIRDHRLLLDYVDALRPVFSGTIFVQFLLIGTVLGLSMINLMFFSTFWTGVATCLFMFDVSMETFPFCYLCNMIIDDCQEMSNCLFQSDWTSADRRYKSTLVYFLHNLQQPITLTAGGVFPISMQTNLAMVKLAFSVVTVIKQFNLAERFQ
Protocol: as §1

[3] = real time current measurement mode

| Structure (SMILES) | limit of detection ([1]; nanodiscs 1:100 dilution) | concentration at which clear electronic response starts [1, 3] | limit of detection ([2]; nanodiscs 1:100 dilution) | concentration at which clear electronic response starts [2, 3] |
| --- | --- | --- | --- | --- |
| CCC/C=C/C=O [E2-hexenal] | below 1 fM | 1 fM |  |  |
| CCCCCC(=O)OC [methyl hexanoate] |  |  | below 1 fM | 1 fM |
